The target of one assay is nsp14 (Severe acute respiratory syndrome coronavirus 2, UniProt P0DTD1). Nature of the assay: surface plasmon resonance (SPR) binding to immobilized full-length biotinylated nsp14. Set-up: species or system SARS-CoV-2. Conditions: n = 3. As to the method:
For Surface Plasmon Resonance (SPR), the full-length biotinylated nsp14 was immobilized on the flow cell of a SA sensor chip in 1x HBS-EP buffer, achieving a response of 8000 RU. The assay was performed using the same buffer but with 2% DMSO added. Single-cycle kinetics were employed with a contact time of 60 seconds and a dissociation time of 120 seconds, at a flow rate of 75 µL/min. NSC620333 was tested at a concentration of 10 µM as the highest concentration, and a dilution factor of 0.25 was used to yield five different concentrations.

Another assay deals with SARS-CoV-2. It is filed as cell-based. The note with it: Calu-3 cells, lung epithelial SARS-CoV-2 infection model.
In a further assay the target is SUV420H1 (Homo sapiens, UniProt Q4FZB7). Nature of the assay: human MTase selectivity panel. The class given is biochemical.
Sequence of SUV420H1 (Q4FZB7 whole entry): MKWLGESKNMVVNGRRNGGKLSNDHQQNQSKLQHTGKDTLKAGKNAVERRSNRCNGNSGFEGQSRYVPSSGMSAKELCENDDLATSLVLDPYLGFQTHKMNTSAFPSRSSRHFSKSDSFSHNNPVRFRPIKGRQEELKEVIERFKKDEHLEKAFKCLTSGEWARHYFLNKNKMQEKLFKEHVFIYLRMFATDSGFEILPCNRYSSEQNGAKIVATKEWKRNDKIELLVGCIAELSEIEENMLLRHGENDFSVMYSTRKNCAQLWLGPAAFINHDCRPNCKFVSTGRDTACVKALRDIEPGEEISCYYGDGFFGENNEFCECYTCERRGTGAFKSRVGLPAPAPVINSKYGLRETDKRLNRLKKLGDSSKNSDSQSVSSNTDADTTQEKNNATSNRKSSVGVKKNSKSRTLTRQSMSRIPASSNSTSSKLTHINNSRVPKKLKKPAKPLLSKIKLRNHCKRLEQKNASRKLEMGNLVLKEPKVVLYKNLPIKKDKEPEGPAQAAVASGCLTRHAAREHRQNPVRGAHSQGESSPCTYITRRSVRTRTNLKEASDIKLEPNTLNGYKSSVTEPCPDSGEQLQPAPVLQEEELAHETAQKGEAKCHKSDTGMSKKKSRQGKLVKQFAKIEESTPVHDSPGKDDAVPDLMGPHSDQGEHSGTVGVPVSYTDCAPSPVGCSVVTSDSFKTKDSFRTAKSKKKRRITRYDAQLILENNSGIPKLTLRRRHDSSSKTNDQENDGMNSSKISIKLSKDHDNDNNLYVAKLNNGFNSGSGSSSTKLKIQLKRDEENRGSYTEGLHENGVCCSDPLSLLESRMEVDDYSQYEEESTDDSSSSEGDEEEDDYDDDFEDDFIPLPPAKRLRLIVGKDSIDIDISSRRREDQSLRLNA
In a further assay the target is PRMT8 (Homo sapiens, UniProt Q9NR22). Briefly: human MTase selectivity panel. It is filed as biochemical.
Sequence of PRMT8 (Q9NR22 whole entry): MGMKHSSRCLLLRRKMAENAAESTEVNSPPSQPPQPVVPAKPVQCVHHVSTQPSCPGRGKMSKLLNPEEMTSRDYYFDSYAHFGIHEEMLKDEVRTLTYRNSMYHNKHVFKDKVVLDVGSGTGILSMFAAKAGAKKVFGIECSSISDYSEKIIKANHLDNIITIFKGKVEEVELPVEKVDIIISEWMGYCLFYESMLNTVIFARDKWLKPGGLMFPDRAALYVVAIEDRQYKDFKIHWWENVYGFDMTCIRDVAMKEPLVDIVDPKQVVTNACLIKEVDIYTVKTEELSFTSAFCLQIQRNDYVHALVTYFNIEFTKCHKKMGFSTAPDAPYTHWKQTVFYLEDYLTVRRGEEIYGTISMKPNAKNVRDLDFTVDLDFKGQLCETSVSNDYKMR
In a further assay the target is T1, PRMT9 (Homo sapiens, UniProt Q6P2P2).
T1 sequence (Q6P2P2 1-845): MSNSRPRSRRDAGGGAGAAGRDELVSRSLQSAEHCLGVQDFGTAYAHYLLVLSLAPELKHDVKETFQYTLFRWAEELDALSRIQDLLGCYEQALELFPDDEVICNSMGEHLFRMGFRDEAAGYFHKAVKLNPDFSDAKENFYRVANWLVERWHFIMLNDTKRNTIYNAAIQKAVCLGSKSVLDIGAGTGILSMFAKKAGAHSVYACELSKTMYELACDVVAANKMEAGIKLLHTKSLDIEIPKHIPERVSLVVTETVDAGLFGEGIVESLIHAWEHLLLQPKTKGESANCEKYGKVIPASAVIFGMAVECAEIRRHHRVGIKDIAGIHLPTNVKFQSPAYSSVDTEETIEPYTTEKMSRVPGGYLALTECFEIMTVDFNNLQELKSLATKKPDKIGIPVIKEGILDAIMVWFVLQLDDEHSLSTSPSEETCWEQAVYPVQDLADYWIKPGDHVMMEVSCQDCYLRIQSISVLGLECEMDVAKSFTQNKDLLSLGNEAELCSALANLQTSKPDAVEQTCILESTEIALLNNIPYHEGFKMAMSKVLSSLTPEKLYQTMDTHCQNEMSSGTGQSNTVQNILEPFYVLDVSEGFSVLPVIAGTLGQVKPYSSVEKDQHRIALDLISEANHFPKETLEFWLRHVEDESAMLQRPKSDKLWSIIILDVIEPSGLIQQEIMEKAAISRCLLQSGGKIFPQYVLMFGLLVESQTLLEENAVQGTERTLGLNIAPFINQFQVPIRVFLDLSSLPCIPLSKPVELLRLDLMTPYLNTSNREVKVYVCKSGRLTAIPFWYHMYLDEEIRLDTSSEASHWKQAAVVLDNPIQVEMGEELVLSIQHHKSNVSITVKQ
Nature of the assay: human MTase selectivity panel. It is filed as biochemical.

Another assay deals with T2, SMYD3 (Homo sapiens, UniProt Q9H7B4).
T2 sequence (Q9H7B4 1-428): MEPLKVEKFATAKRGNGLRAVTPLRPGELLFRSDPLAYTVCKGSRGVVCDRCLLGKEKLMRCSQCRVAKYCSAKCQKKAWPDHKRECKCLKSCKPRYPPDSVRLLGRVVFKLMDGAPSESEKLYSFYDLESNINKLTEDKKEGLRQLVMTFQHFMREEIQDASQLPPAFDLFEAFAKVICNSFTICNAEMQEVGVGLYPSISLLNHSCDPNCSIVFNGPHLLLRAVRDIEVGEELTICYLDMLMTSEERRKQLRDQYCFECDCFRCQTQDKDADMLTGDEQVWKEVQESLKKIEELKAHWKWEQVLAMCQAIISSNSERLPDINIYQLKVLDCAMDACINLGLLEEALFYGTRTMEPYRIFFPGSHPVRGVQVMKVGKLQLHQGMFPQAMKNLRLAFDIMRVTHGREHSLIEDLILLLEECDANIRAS
Briefly: human MTase selectivity panel. It is filed as biochemical.

A further assay addresses T3, BCDIN3D (Homo sapiens, UniProt Q7Z5W3).
T3 sequence (Q7Z5W3 1-292): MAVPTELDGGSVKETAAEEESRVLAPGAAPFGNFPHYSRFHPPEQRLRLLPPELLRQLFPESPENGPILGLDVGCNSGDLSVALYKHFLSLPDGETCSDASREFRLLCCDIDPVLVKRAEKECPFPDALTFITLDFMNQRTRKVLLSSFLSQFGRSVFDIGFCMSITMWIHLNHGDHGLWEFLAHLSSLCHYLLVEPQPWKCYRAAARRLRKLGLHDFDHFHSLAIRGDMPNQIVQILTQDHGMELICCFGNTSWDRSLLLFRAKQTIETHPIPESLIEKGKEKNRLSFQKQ
Nature of the assay: human MTase selectivity panel. The class given is biochemical.

Where [1] appears, read: average ± SD, read-out: Activity (%) at 10 µM Average.
The mark [2] stands for this setting: read-out: Activity (%) at 10 µM Replicate 1.
The mark [3] stands for this setting: read-out: Activity (%) at 10 µM Replicate 2.
[4] abbreviates: read-out: Activity (%) at 10 µM Replicate 3.

Read-outs that look alike come from different tables or passages of the source.

In the case of `Nc1ncnc2c1ncn2[C@@H]1O[C@H](CSCc2ccc(Cl)cc2)[C@@H](O)[C@H]1O` [NSC620333], the Kd on nsp14 (SPR single-cycle kinetics, read-out: KD (kinetic fitting)) turned out to be 427 ± 84 nM; at nsp14 (SPR steady-state 1:1 binding model, read-out: steady-state KD) it was 544 ± 22 nM. Moreover, the anti-SARS-CoV-2 activity result with SARS-CoV-2 was “demonstrated anti-SARS-CoV-2 activity”. The activity at 10 µM at SUV420H1 (setting [1]) was found to be 93 ± 8%; on SUV420H1 (setting [2]), 84%; at SUV420H1 (setting [3]), 97%; on SUV420H1 (setting [4]), 98%; at PRMT8 (setting [1]) it was 96 ± 3%; at PRMT8 (setting [2]), 97%. Further, the activity at 10 µM on PRMT8 (setting [3]) was 99%; at PRMT8 (setting [4]), 93%; at PRMT9 (setting [1]), 117 ± 3%; at PRMT9 (setting [2]), 118%; at PRMT9 (setting [3]), 118%; at PRMT9 (setting [4]), 113%. For the same compound, the activity at 10 µM stood at 100 ± 9% on SMYD3 (setting [1]); 101% at SMYD3 (setting [2]); 108% at SMYD3 (setting [3]); 91% on SMYD3 (setting [4]); 62 ± 5% on BCDIN3D (setting [1]); 57% on BCDIN3D (setting [2]). Besides, the figures for the activity at 10 µM at BCDIN3D (setting [3]) and at BCDIN3D (setting [4]) were 66% and 64%, respectively.
